Measured values reported in the NIST ThermoML archive (doi:10.1021/je7007632).

Experiments:
[1] = refractive index (Na D-line) (dimensionless); details: 101.33 kPa, Liquid, Standard Abbe refractometry
[2] = refractive index (Na D-line) (dimensionless); xn = mol fraction of the nth substance listed; details: 101 kPa, Liquid, Standard Abbe refractometry

CC(O)CCO (centres undefined) [1,3-butanediol]
[1]
Details | refractive index
293.15 K | 1.4412
298.15 K | 1.4391
303.15 K | 1.437
308.15 K | 1.4349
313.15 K | 1.4329
318.15 K | 1.4308

CC(O)CCO (centres undefined) [1,3-butanediol] + NC=O
refractive index, [2]
Details | x2 = 0 | x2 = 0.1061 | x2 = 0.2004 | x2 = 0.3068 | x2 = 0.4026 | x2 = 0.5033 | x2 = 0.6046 | x2 = 0.7013 | x2 = 0.8073 | x2 = 0.9058
293.15 K | 1.4412 | 1.441 | 1.4409 | 1.4411 | 1.4414 | 1.4419 | 1.4425 | 1.4434 | 1.4445 | 1.4459
298.15 K | 1.4391 | 1.4389 | 1.4389 | 1.4391 | 1.4395 | 1.4401 | 1.4409 | 1.4419 | 1.4432 | 1.4448
303.15 K | 1.437 | 1.4368 | 1.4369 | 1.4372 | 1.4377 | 1.4384 | 1.4393 | 1.4404 | 1.4419 | 1.4437
308.15 K | 1.4349 | 1.4348 | 1.4349 | 1.4352 | 1.4358 | 1.4366 | 1.4377 | 1.4389 | 1.4406 | 1.4427
313.15 K | 1.4329 | 1.4328 | 1.4329 | 1.4333 | 1.434 | 1.4349 | 1.436 | 1.4374 | 1.4393 | 1.4415
318.15 K | 1.4308 | 1.4307 | 1.4309 | 1.4314 | 1.4321 | 1.4331 | 1.4344 | 1.4359 | 1.4379 | 1.4404

OCCCCO [1,4-butanediol]
[1]
Details | refractive index
293.15 K | 1.4451
298.15 K | 1.4431
303.15 K | 1.4411
308.15 K | 1.4391
313.15 K | 1.4372
318.15 K | 1.4352

OCCCCO [1,4-butanediol] + NC=O
refractive index, [2]
Details | x2 = 0 | x2 = 0.1052 | x2 = 0.1988 | x2 = 0.3041 | x2 = 0.4002 | x2 = 0.5009 | x2 = 0.6022 | x2 = 0.6992 | x2 = 0.8051 | x2 = 0.905
293.15 K | 1.4451 | 1.4445 | 1.444 | 1.4437 | 1.4436 | 1.4437 | 1.444 | 1.4445 | 1.4452 | 1.4463
298.15 K | 1.4431 | 1.4425 | 1.442 | 1.4418 | 1.4418 | 1.442 | 1.4424 | 1.4431 | 1.4439 | 1.4452
303.15 K | 1.4411 | 1.4405 | 1.44 | 1.4399 | 1.44 | 1.4403 | 1.4408 | 1.4416 | 1.4426 | 1.4441
308.15 K | 1.4391 | 1.4385 | 1.438 | 1.438 | 1.4382 | 1.4386 | 1.4392 | 1.4401 | 1.4413 | 1.443
313.15 K | 1.4372 | 1.4365 | 1.4361 | 1.4361 | 1.4364 | 1.4369 | 1.4376 | 1.4386 | 1.44 | 1.4419
318.15 K | 1.4352 | 1.4345 | 1.4341 | 1.4342 | 1.4345 | 1.4351 | 1.4359 | 1.437 | 1.4386 | 1.4407

CCCCO [butan-1-ol]
[1]
Details | refractive index
293.15 K | 1.3994
298.15 K | 1.3974
303.15 K | 1.3953
308.15 K | 1.3933
313.15 K | 1.3913
318.15 K | 1.3893

CCCCO [butan-1-ol] + NC=O
[2], x2 = 0
Details | refractive index
293.15 K | 1.3994
298.15 K | 1.3974
303.15 K | 1.3953
308.15 K | 1.3933
313.15 K | 1.3913
318.15 K | 1.3893

CCC(C)O (centres undefined) [butan-2-ol]
[1]
Details | refractive index
293.15 K | 1.3972
298.15 K | 1.3951
303.15 K | 1.3931
308.15 K | 1.3911
313.15 K | 1.3891
318.15 K | 1.3871

CCC(C)O (centres undefined) [butan-2-ol] + NC=O
[2], x2 = 0
Details | refractive index
293.15 K | 1.3972
298.15 K | 1.3951
303.15 K | 1.3931
308.15 K | 1.3911
313.15 K | 1.3891
318.15 K | 1.3871

NC=O [formamide]
[1]
Details | refractive index
293.15 K | 1.4475
298.15 K | 1.4467
303.15 K | 1.4459
308.15 K | 1.4451
313.15 K | 1.4442
318.15 K | 1.4433

NC=O [formamide] + CC(O)CCO
[2], x1 = 1
Details | refractive index
293.15 K | 1.4475
298.15 K | 1.4467
303.15 K | 1.4459
308.15 K | 1.4451
313.15 K | 1.4442
318.15 K | 1.4433

NC=O [formamide] + CCC(C)O
refractive index, [2]
Details | x1 = 0.1043 | x1 = 0.2043 | x1 = 0.3056 | x1 = 0.4083 | x1 = 0.5093 | x1 = 0.6063 | x1 = 0.7068 | x1 = 0.8042 | x1 = 0.9024 | x1 = 1
293.15 K | 1.3993 | 1.4017 | 1.4045 | 1.4079 | 1.4119 | 1.4165 | 1.4222 | 1.4289 | 1.4372 | 1.4475
298.15 K | 1.3973 | 1.3996 | 1.4025 | 1.4061 | 1.4102 | 1.4149 | 1.4207 | 1.4276 | 1.4361 | 1.4467
303.15 K | 1.3953 | 1.3977 | 1.4007 | 1.4043 | 1.4085 | 1.4133 | 1.4193 | 1.4263 | 1.435 | 1.4459
308.15 K | 1.3933 | 1.3958 | 1.3989 | 1.4026 | 1.4068 | 1.4118 | 1.4179 | 1.4251 | 1.434 | 1.4451
313.15 K | 1.3913 | 1.3939 | 1.397 | 1.4008 | 1.4051 | 1.4102 | 1.4164 | 1.4237 | 1.4328 | 1.4442
318.15 K | 1.3893 | 1.3919 | 1.3951 | 1.399 | 1.4034 | 1.4086 | 1.4149 | 1.4224 | 1.4317 | 1.4433

NC=O [formamide] + CCCCO
refractive index, [2]
Details | x1 = 0.1093 | x1 = 0.2057 | x1 = 0.3138 | x1 = 0.4104 | x1 = 0.5115 | x1 = 0.6124 | x1 = 0.7081 | x1 = 0.8123 | x1 = 0.9086 | x1 = 1
293.15 K | 1.4023 | 1.4052 | 1.4086 | 1.4119 | 1.4158 | 1.4203 | 1.4252 | 1.4316 | 1.4389 | 1.4475
298.15 K | 1.4003 | 1.4032 | 1.4067 | 1.4101 | 1.4141 | 1.4187 | 1.4238 | 1.4303 | 1.4378 | 1.4467
303.15 K | 1.3983 | 1.4012 | 1.4048 | 1.4083 | 1.4124 | 1.4171 | 1.4223 | 1.429 | 1.4367 | 1.4459
308.15 K | 1.3963 | 1.3992 | 1.4029 | 1.4065 | 1.4107 | 1.4155 | 1.4208 | 1.4277 | 1.4357 | 1.4451
313.15 K | 1.3943 | 1.3973 | 1.4011 | 1.4047 | 1.409 | 1.4139 | 1.4194 | 1.4264 | 1.4345 | 1.4442
318.15 K | 1.3923 | 1.3954 | 1.3992 | 1.4029 | 1.4073 | 1.4123 | 1.4179 | 1.4251 | 1.4334 | 1.4433

NC=O [formamide] + OCCCCO
[2], x1 = 1
Details | refractive index
293.15 K | 1.4475
298.15 K | 1.4467
303.15 K | 1.4459
308.15 K | 1.4451
313.15 K | 1.4442
318.15 K | 1.4433
